Reference: PubChem BioAssay (NCI)
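The compound was tested at five concentrations on cells cultured in 96-well plates, with a 48-hour exposure period. TGI marks complete inhibition of growth.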

Assays:
Test in all cases: NCI tumour cell line growth inhibition, 48 h
A549 NSCLC = system: A549 NSCLC
ACHN renal = system: ACHN renal
COLO 205 colon = system: COLO 205 colon
HCC-2998 colon = system: HCC-2998 colon
HCT-116 colon = system: HCT-116 colon
HT29 colon = system: HT29 colon
KM12 colon = system: KM12 colon
MOLT-4 leukemia = system: MOLT-4 leukemia
SK-MEL-28 melanoma = system: SK-MEL-28 melanoma
SK-MEL-5 melanoma = system: SK-MEL-5 melanoma
SNB-75 CNS = system: SNB-75 CNS
SR leukemia = system: SR leukemia
UACC-257 melanoma = system: UACC-257 melanoma
HCT-15 colon = system: HCT-15 colon
MCF7 breast = system: MCF7 breast
MDA-N = system: MDA-N
OVCAR-5 ovarian = system: OVCAR-5 ovarian
PC-3 prostate = system: PC-3 prostate
T-47D breast = system: T-47D breast
U251 CNS = system: U251 CNS

| Structure (SMILES) | TGI (A549 NSCLC) | TGI (ACHN renal) | TGI (COLO 205 colon) | TGI (HCC-2998 colon) | TGI (HCT-116 colon) | TGI (HT29 colon) | TGI (KM12 colon) | TGI (MOLT-4 leukemia) | TGI (SK-MEL-28 melanoma) | TGI (SK-MEL-5 melanoma) | TGI (SNB-75 CNS) | TGI (SR leukemia) | TGI (UACC-257 melanoma) | TGI (HCT-15 colon) | TGI (MCF7 breast) | TGI (MDA-N) | TGI (OVCAR-5 ovarian) | TGI (PC-3 prostate) | TGI (T-47D breast) | TGI (U251 CNS) |
| --- | --- | --- | --- | --- | --- | --- | --- | --- | --- | --- | --- | --- | --- | --- | --- | --- | --- | --- | --- | --- |
| COC(=O)C1=C(C)N2CCOC2CC1c1ccccc1 (centres undefined) | > 100 µM | > 100 µM | > 100 µM | > 100 µM | > 100 µM | > 100 µM | > 100 µM | > 100 µM | > 100 µM | > 100 µM | > 100 µM | > 100 µM | > 100 µM | – | – | – | – | – | – | – |
| CN1C(=O)C2C=C3CCCCC3=CC2N(C)C1=O (centres undefined) | > 100 µM | > 100 µM | > 100 µM | > 100 µM | > 100 µM | > 100 µM | > 100 µM | > 100 µM | > 100 µM | > 100 µM | > 100 µM | > 100 µM | > 100 µM | > 100 µM | > 100 µM | > 100 µM | > 100 µM | > 100 µM | > 100 µM | > 100 µM |
| Cc1ccc(S(=O)(=O)NCCCSCCSCCCN)cc1 | > 100 µM | > 100 µM | > 100 µM | > 100 µM | > 100 µM | > 100 µM | > 100 µM | > 100 µM | > 100 µM | > 100 µM | > 100 µM | > 100 µM | > 100 µM | > 100 µM | > 100 µM | > 100 µM | – | > 100 µM | > 100 µM | > 100 µM |
| CN(C)CCN(C(=Nc1ccccc1)N1CCCC1)c1ccccc1 | > 100 µM | > 100 µM | > 100 µM | – | > 100 µM | 92.4 µM | > 100 µM | > 100 µM | > 100 µM | > 100 µM | > 100 µM | > 100 µM | > 100 µM | > 100 µM | > 100 µM | 86.6 µM | > 100 µM | > 100 µM | > 100 µM | > 100 µM |
| CCN(CC)CCN(C(=O)c1ccc(F)cc1)c1ccccc1N | > 10 µM | > 10 µM | > 10 µM | > 10 µM | > 10 µM | > 10 µM | > 10 µM | > 10 µM | > 10 µM | > 10 µM | > 10 µM | > 10 µM | – | > 10 µM | > 10 µM | > 10 µM | > 10 µM | > 10 µM | > 10 µM | > 10 µM |
| COc1cc2oc(=O)ccc2cc1CC=C(C)C | > 100 µM | > 100 µM | > 100 µM | > 100 µM | > 100 µM | 77.7 µM | > 100 µM | > 100 µM | > 100 µM | 73.7 µM | > 100 µM | 57.4 µM | > 100 µM | – | > 100 µM | > 100 µM | > 100 µM | > 100 µM | > 100 µM | > 100 µM |
| O=C(N/N=C\C(F)(F)F)c1ccncc1 | – | – | > 100 µM | > 100 µM | – | > 100 µM | > 100 µM | > 100 µM | > 100 µM | > 100 µM | > 100 µM | > 100 µM | > 100 µM | > 100 µM | > 100 µM | – | > 100 µM | > 100 µM | – | > 100 µM |
| Cc1ccc(S(=O)(=O)NNC2Oc3cc4c(cc3C(c3ccccc3O)C2C)OCO4)cc1 (centres undefined) | 26.8 µM | 26 µM | 29.5 µM | 32.6 µM | 22.1 µM | 27.6 µM | 26.5 µM | 42.7 µM | 30.1 µM | 27.6 µM | 23.3 µM | 33.4 µM | 23.3 µM | 32 µM | 35.2 µM | 27 µM | 30.5 µM | 22.8 µM | 25.6 µM | 22 µM |
